Test results taken from US8357705B2 (priority 2008, dated 2013).

Columns and labels:
[1] = test system: sodium channel binding site 2; set-up: species or system rat

Cc1cnc([C@@H](Cc2c[nH]c3ccccc23)NC2CCC(c3ccccc3)(N(C)C)CC2)o1 (stereo partly shown)
melting point: 65 to 70 °C

Cc1csc([C@@H](Cc2c[nH]c3ccccc23)NC2CCC(c3ccccc3)(N(C)C)CC2)n1 (stereo partly shown)
melting point: 71 to 74 °C

CN(C)C1(c2ccccc2)CCC(N(C(=O)C(F)(F)F)C(Cc2c[nH]c3ccccc23)c2nnn[nH]2)CC1 (stereo not shown)
melting point: 195 to 228 °C

CN(C)C(=O)[C@H](Cc1c[nH]c2ccccc12)NC1CCC(c2ccccc2)(N(C)C)CC1.Cl.Cl (stereo partly drawn) [Example 6, (S)-2-(4-(dimethylamino)-4-phenylcyclohexylamino)-3-(1H-indol-3-yl)-N,N-dimethylpropanamide dihydrochloride]
Inhibition (BTX) Mean [% at 10 μM] [1]: 15%
